According to US10179122B2, “Use of melatonin” (priority 2011, dated 2019):

Tested on: hangover symptoms after consumption of alcoholic beverages
Assay: Hangover symptoms after alcohol consumption, blinded subjects given a sublingual melatonin strip before sleep
Format: in vivo, human
Procedure: Subjects were blind to all the experimental treatments.
A person was fed alcoholic beverages containing ethyl alcohol until the blood alcohol concentration reached 310 mg/dL at a time of 10 pm. Next, the person drank 1 l of water and immediately after that was administered a sublingual strip comprising 2.5 mg of melatonin in non-retard form. After that the person went to sleep. […] This experiment was repeated with 20 other persons with the same effect.
For comparison, the same experiment was conducted with administration of the sublingual strip without melatonin as a placebo. 19 out of 20 persons reported severe typical hangover symptoms like headaches.

Compound: COc1ccc2[nH]cc(CCNC(C)=O)c2c1 [melatonin]
- typical hangover symptoms after 8 h of physiologic sleep (one person, blood alcohol concentration 310 mg/dL at 10 pm, 1 l of water, then sublingual strip with 2.5 mg melatonin in non-retard form, assessed after 8 h sleep): did not suffer from any typical hangover symptoms
- typical hangover symptoms after 8 h of physiologic sleep (experiment repeated) (repeated with 20 other persons, same protocol (310 mg/dL, 1 l of water, sublingual strip with 2.5 mg melatonin in non-retard form, 8 h sleep)): same effect
